Patent EP4775203A1, “VANILLIC ACID DERIVATIVE COMPOUND, THERAPEUTIC AGENT COMPOSITION FOR ALZHEIMER'S DISEASE COMPRISING SAME, AND THERAPEUTIC AGENT COMPOSITION FOR NEUROINFLAMMATION” (Theranocure Co., Ltd., priority 2023, dated 2025)

Experiments:
BV2 cells [1] = assay: Cell viability assay (CCK-8); format: cell-based, mouse; settings: VD alone
Experimental: (§1) The cytotoxicity of the synthesized VD was evaluated through a cell viability assay. BV2 cells (normal mouse brain-derived cells) were used. The cells were cultured in a growth medium containing DMEM supplemented with 10% FBS (fetal bovine serum). The medium further contained 1% antibiotic-antimycotic solution, 1% insulin-transferrin-selenium, and 40 ng/mL dexamethasone, and the cells were incubated at 37°C in a humidified atmosphere containing 5% CO2. […] After maintaining the cells under serum-free conditions for 24 hours, subsequent incubation for 48 hours was performed using RPMI 1640 medium containing 10% FBS and […]. Thereafter, fresh complete medium containing Cell Counting Kit-8 (CCK-8) solution was added to the plate and incubated for 3 hours. Cell viability was measured by absorbance at 450 nm using a SpectraMax® i3 (Molecular Devices, CA, U.S.).

[2] = Cell viability assay (CCK-8); format: cell-based, mouse; settings: mouse, bv2 cells, VD + additive propylene glycol (PG)
Experimental: as §1

BV2 cells [3] = assay: Nitric oxide (NO) secretion analysis (Griess reagent) after LPS treatment; format: cell-based, mouse; settings: LPS 2 hours, then VD 12 hours; all tested concentrations (up to 100 µM); compared to LPS-only group
Experimental: This evaluation example was conducted to assess the effect of VD on nitric oxide (NO) secretion. Nitric oxides such as NO are inflammatory mediators that increase during inflammatory responses or infection and serve as important indicators of inflammation severity. By determining whether VD can inhibit NO secretion, the anti-inflammatory effect of VD was evaluated. After stabilizing BV2 cells, the cells were treated with LPS for 2 hours, followed by the addition of VD and incubation for 12 hours. The supernatant was collected from the cultured cells and centrifuged at 5,000 rpm for 2 minutes at 4°C. The analysis was performed using a Griess reagent kit, and the concentration of nitric oxide was calculated by measuring absorbance at 540 nm.

NF-κB = assay: Western blot for pNF-κB in LPS-treated cells; format: cell-based; settings: LPS 1000 ng/mL, 100 µM VD
Experimental: This experiment was conducted to evaluate how VD regulates the NF-κB pathway, which plays a critical role in inflammatory responses. NF-κB is a key transcription factor that regulates inflammatory responses, and when activated within cells, it promotes the expression of inflammatory cytokines. Therefore, inhibition of NF-κB activation may play an important role in suppressing inflammation. CREB acts upstream of the NF-κB pathway, and activation of CREB is associated with inhibition of the NF-κB pathway. Cells were treated with LPS (1000 ng/mL) to activate the NF-κB pathway and induce an inflammatory response, followed by treatment with VD at a concentration of 100 µM. A group treated with both VD and the additive (propylene glycol, PG) was also included for comparison. Western blot analysis was performed to examine the expression of pNF-κB, the activated form of NF-κB, and Lamin B was used as a control for nuclear protein quantification.

[4] = system: Alzheimer's disease mouse model (5xFAD); assay: Western blot of hippocampus and cerebral cortex proteins after IV treatment; format: in vivo
Experimental: This evaluation example was conducted to assess the effect of VD (vanillic acid-dopamine derivative) on the expression of specific proteins when administered to a 12-month-old Alzheimer's disease mouse model (5xFAD).
A total of 13 twelve-month-old 5xFAD mice were used in this experiment. The experiment was divided into three groups: (1) a normal wild-type group, (2) a dementia-induced group administered saline (5xFAD + saline), and (3) a dementia-induced group administered VD (5xFAD + VD). Each group received intravenous (IV) injections of the respective substance six times over a total period of 20 days. After completion of the treatment, the brains were harvested from the mice, and hippocampal tissue was isolated for further analysis. Protein expression of specific factors was evaluated using the hippocampal tissue. To extract proteins, the tissue was homogenized in RIPA buffer and centrifuged at 13,000 rpm for 15 minutes at 4°C. The supernatant was collected, and protein concentration was measured using a BCA protein assay kit. Equal amounts of protein were loaded onto 8.5% SDS-PAGE gels and transferred to an Immobilon-P membrane. The membranes were blocked with 3% bovine serum albumin (BSA) in Tris-buffered saline containing 0.05% Tween-20 (TBS-T) for 3 hours at room temperature. Thereafter, diluted primary antibodies were incubated overnight at 4°C in 3% BSA. The membranes were washed three times and then incubated with secondary antibodies for 1 hour. Western blot bands were detected using PicoEPD Western Reagent and SuperSignal™ West Femto Maximum Sensitivity Substrate, and images were captured using a chemiluminescent western imaging system. The obtained images were analyzed using ImageJ software.
FIGS. 14 and 15 show Western blot results analyzing changes in protein expression in the hippocampus and cerebral cortex, respectively, after treatment with VD (vanillic acid-dopamine derivative). These experiments were conducted using Alzheimer's disease model mice (5xFAD), and the expression levels of various inflammatory and neurodegeneration-related proteins were compared to evaluate the effect of VD. Both FIGS. 14 and 15 were conducted in two independent sets, with the left panels showing the results of the first set and the right panels showing the results of the second set.
This figure quantitatively evaluates the anti-inflammatory and neuroprotective effects of VD in Alzheimer's disease model mice (5xFAD). For this purpose, VD was administered to dementia model mice at two doses, 2 mg/kg and 4 mg/kg. The inflammatory and neurodegeneration-related factors analyzed in this experiment were as follows. NLRP3 is a protein complex acting as an inflammatory factor that plays an important role in regulating immune responses and inducing inflammation. BACE-1 (Beta-site Amyloid Precursor Protein Cleaving Enzyme 1) is an enzyme that cleaves amyloid precursor protein (APP) to generate β-amyloid. β-amyloid is one of the primary causative substances of Alzheimer's disease, and its accumulation is considered a key pathological feature of the disease. IBA-1 is a marker of microglial activation, indicating activation of microglia, which play a crucial role in immune and inflammatory responses in the brain. GFAP is a marker of astrocyte activation, and increased GFAP expression indicates activation of astrocytes. When astrocytes and microglia are activated, they secrete pro-inflammatory cytokines, thereby promoting inflammatory responses.

[5] = system: dementia mouse model (5xFAD); assay: Water maze experiment (cognitive function); format: in vivo
From the text: Latency to Target represents the time required to reach the target platform. As dementia progresses, cognitive function declines, leading to increased latency.
Occupancy in Target Quadrant refers to the extent to which the mice reached or remained in the quadrant containing the target. […] Number of Target Crossings represents the number of times the mice crossed the location of the target platform.

CREB = assay: Western blot for CREB / pCREB in LPS-treated cells; format: cell-based; settings: LPS 1000 ng/mL, 100 µM VD, with or without additive (PG)
Experimental: This experiment was performed to evaluate how VD regulates the CREB factor, which plays an important role in inflammatory signaling pathways. CREB (cAMP response element-binding protein) is a transcription factor that regulates various intracellular signaling pathways. When activated, CREB plays an important role in suppressing the NF-κB pathway. Since NF-κB is one of the major mediators of inflammatory responses, activation of CREB is closely associated with inflammation suppression. After inducing an inflammatory response in cells by treating them with LPS (1000 ng/mL), VD was subsequently administered at concentrations of 10 µM, 50 µM, and 100 µM. A group treated with both VD and the additive (propylene glycol, PG) was also included. Western blot analysis was then performed to examine the expression levels of CREB and its activated form, pCREB. β-actin was used as an internal control for protein quantification.

[6] = biological target: T1, dopamine receptor 1 (D1R) (Mus musculus, UniProt Q61616); assay: Protein-ligand interaction (CETSA); format: binding
T1 construct: endogenous in cells; BV2 inferred
T1 sequence (Q61616 whole entry): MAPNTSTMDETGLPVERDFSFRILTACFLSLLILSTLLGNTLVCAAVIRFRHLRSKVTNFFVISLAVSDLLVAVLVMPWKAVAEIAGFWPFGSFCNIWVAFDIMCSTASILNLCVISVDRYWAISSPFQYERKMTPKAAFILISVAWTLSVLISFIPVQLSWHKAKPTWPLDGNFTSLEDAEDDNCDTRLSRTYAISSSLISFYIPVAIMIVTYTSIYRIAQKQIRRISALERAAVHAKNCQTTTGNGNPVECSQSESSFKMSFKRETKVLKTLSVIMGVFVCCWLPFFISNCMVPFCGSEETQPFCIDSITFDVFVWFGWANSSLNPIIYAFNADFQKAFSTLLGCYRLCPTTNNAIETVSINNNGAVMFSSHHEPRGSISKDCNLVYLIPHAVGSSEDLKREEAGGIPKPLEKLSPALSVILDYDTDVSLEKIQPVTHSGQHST
Experimental: (§2) This experiment was conducted to identify the receptor targeted by VD. Dopamine receptors (D1-D5) are present on the membranes of neurons, microglia, and astrocytes. The study aimed to determine through which pathway VD exerts its anti-inflammatory effects. Since dopamine receptors are broadly classified into the D1-like and D2-like families, representative dopamine receptor 1 (D1R) and dopamine receptor 2 (D2R) were evaluated using CETSA.

[7] = biological target: T2, dopamine receptor 2 (D2R) (Mus musculus, UniProt P61168); assay: Protein-ligand interaction (CETSA); format: binding
T2 construct: endogenous in cells; BV2 inferred
T2 sequence (P61168 whole entry): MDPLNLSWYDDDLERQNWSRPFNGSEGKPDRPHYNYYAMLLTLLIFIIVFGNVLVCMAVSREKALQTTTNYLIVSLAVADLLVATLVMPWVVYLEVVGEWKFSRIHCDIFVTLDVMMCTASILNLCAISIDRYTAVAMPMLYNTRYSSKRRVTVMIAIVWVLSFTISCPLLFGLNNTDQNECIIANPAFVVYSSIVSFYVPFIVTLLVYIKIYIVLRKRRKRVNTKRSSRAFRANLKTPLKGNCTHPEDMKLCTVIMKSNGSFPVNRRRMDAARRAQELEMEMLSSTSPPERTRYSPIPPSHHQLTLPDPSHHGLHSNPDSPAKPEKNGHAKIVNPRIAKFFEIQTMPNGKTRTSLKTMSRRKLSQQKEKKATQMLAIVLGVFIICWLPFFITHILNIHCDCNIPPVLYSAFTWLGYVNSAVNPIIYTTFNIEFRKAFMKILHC
Experimental: as §2

IL-6 = assay: Western blot of pro-inflammatory factors in LPS-treated cells; format: cell-based; settings: compared to LPS-only treated group
Experimental: (§3) This in vitro experiment was performed to evaluate the ability of VD to suppress inflammatory responses. After extracting proteins from treated cells, the expression levels of inflammatory factors such as IL-6, iNOS, NLRP3, and TNF-α were analyzed by Western blotting. β-actin was used as an internal control for protein quantification. […] Accordingly, it may be concluded that VD affects both inflammatory and pro-inflammatory factors.

TNF-α = assay: as above; format: cell-based; settings: compared to LPS-only treated group
Experimental: as §3

iNOS = assay: as above; format: cell-based; settings: compared to LPS-only treated group
Experimental: as §3

NLRP3 = assay: Western blot of inflammatory factors in LPS-treated cells; format: cell-based; settings: compared to LPS-only treated group
Experimental: as §3

[8] = 2 mg/kg and 4 mg/kg, IV six times over 20 days

CETSA change in D1R [6]: a change was observed
CETSA change in D2R [7]: no significant change
SMILES: COc1cc(C(=O)NCCc2ccc(O)c(O)c2)ccc1O [VD]
cell viability (cytotoxicity) (BV2 cells [1]; 0-100 µM): little to no cytotoxicity
cell viability (cytotoxicity) (BV2 cells [1]; 200 µM or more): slight cytotoxicity
viability at 100 µM ([2]; 100 µM): 84.7%
viability at 200 µM ([2]; 200 µM): 60.1%
viability at 400 µM ([2]; 400 µM): 43.1%
NO secretion (BV2 cells [3]): lower NO secretion
activation of NF-κB (pNF-κB) (NF-κB): significantly reduced
expression of inflammatory cytokines [4]: reduced
expression of phosphorylated tau [4]: reduced
expression of β-amyloid [4]: reduced
expression of BACE-1 [4, 8]: suppressed
expression of GFAP [4, 8]: suppressed
expression of IBA-1 [4, 8]: suppressed
expression of NLRP3 [4, 8]: suppressed
Latency to Target ([5]; 4 mg/kg VD-treated group): most significant improvement
Number of Target Crossings ([5]; 4 mg/kg group vs untreated dementia mice): notably higher
Number of Target Crossings ([5]; VD-treated group vs untreated dementia mice): more frequently
Occupancy in Target Quadrant ([5]; VD-treated groups, particularly 4 mg/kg, vs untreated dementia mice): higher occupancy rate
Latency to Target ([5]; VD-treated vs untreated dementia mice): shorter
pCREB/CREB ratio (CREB): significant increase
intensity of IL-6 (IL-6): same pattern as NLRP3
intensity of TNF-α (TNF-α): same pattern as NLRP3
intensity of iNOS (iNOS): same pattern as NLRP3
intensity of NLRP3 (NLRP3): effectively reduced
